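All cell lines were grown in 96-well plates and treated with compound for 48 hours. GI50 = concentration required for 50% inhibition of growth. At the TGI there is no net growth.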
Legend:
Assay in all cases: growth of human tumour cells (NCI), 48 h
[1] = test system: IGROV1 ovarian
[2] = test system: CCRF-CEM leukemia
[3] = test system: UACC-62 melanoma
[4] = test system: LOX IMVI melanoma
[5] = test system: HS 578T breast
[6] = test system: ACHN renal
[7] = test system: RPMI-8226 leukemia
[8] = test system: SF-295 CNS
[9] = test system: HT29 colon
[10] = test system: HCT-116 colon
[11] = test system: OVCAR-5 ovarian
[12] = test system: COLO 205 colon
[13] = test system: HCT-15 colon
[14] = test system: EKVX NSCLC
[15] = test system: DU-145 prostate
[16] = test system: SF-268 CNS
[17] = test system: OVCAR-3 ovarian
[18] = test system: SNB-19 CNS
[19] = test system: T-47D breast
[20] = test system: NCI-H23 lung
[21] = test system: NCI-H226 lung
[22] = test system: MALME-3M melanoma
[23] = test system: SN12C renal
[24] = test system: 786-0 renal
[25] = test system: HCC-2998 colon
[26] = test system: MOLT-4 leukemia
[27] = test system: NCI-H522 lung
[28] = test system: OVCAR-4 ovarian

`O=C1N/C(=N\c2nccs2)S/C1=C\c1ccc([N+](=O)[O-])cc1` gave a TGI [1] of 30.8 µM, a GI50 [2] of 3.84 µM and a TGI [2] of 32.5 µM. The GI50 [3] was 5.08 µM, the TGI [3] was 23.1 µM and the GI50 [4] was 4.75 µM. It also gave a TGI [4] of 34.2 µM, a GI50 [5] of 11.6 µM and a TGI [5] of 81.6 µM. It also gave a GI50 [6] of 5.49 µM, a TGI [6] of 35.2 µM and a GI50 [7] of 3.56 µM. The TGI [7] was 31.6 µM, the GI50 [8] was 5.11 µM and the TGI [8] was 40.5 µM. The GI50 [9] was 18.5 µM, the TGI [9] was > 100 µM and the GI50 [10] was 4.44 µM. The TGI [10] was 19 µM, the GI50 [11] was 16.1 µM and the TGI [11] was 95.6 µM. The GI50 [12] was 7.7 µM, the TGI [12] was 23.9 µM and the GI50 [13] was 4.29 µM. The TGI [13] was > 100 µM, the GI50 [14] was 4.71 µM and the TGI [14] was 27.8 µM. For the same compound, the GI50 [15] was 11.9 µM, the TGI [15] was > 100 µM and the GI50 [16] was 10.1 µM. For the same compound, the TGI [16] was > 100 µM, the GI50 [17] was 4.73 µM and the TGI [17] was 29.4 µM. For the same compound, the GI50 [18] was 3.58 µM, the TGI [18] was 70.6 µM and the GI50 [19] was 5.05 µM. It also gave a TGI [19] of 53.1 µM, a GI50 [20] of 6.8 µM and a TGI [20] of 70 µM. For the same compound, the GI50 [21] was 12.5 µM, the TGI [21] was 68.2 µM and the GI50 [22] was 11.2 µM. It also gave a TGI [22] of 27.2 µM, a GI50 [23] of 5.47 µM and a TGI [23] of 63.5 µM. For the same compound, the GI50 [24] was 6.17 µM, the TGI [24] was 72.9 µM and the GI50 [25] was 6.93 µM. It also gave a TGI [25] of 30.4 µM, a GI50 [26] of 2.54 µM and a TGI [26] of 7.5 µM. For the same compound, the GI50 [27] was 7.47 µM, the TGI [27] was 33.9 µM and the GI50 [28] was 7.01 µM. It also gave a TGI [28] of 67.5 µM.
